Measured values reported in patent publication US10675258B2, “Method of using gamma-hydroxybutyrate compositions for the treatment of disorders” (Jazz Pharmaceuticals Ireland Limited, priority 2012, dated 2020).

Assays:
[1] = Maximum solubility of GHB as a function of pH of the aqueous medium; format: physicochemical
Experimental: It will be understood that the maximum solubility of GHB is affected by the pH of the aqueous medium. For example, at about pH 4, the maximum amount of Na•GHB that can be dissolved is about 450 mg/ml.

[2] = Chemical stability of GHB as a function of pH (GBL formation); details: aqueous GHB compositions

## O=C([O-])CCCO.[Na+] [Na•GHB, sodium gamma-hydroxybutyrate]
[1]; aqueous medium at about pH 4
  maximum amount that can be dissolved: about 450 mg/ml

## O=C(O)CCCO [GHB, gamma-hydroxybutyrate]
[2]
  pH at which GBL begins to form: ≤ 6
[1]; 750 mg/ml GHB, aqueous medium
  minimal pH that will dissolve 750 mg/ml GHB: ~6.8
